Values quoted from earlier work as cited in patent US20250312496A1, “PROSTATE SPECIFIC MEMBRANE ANTIGEN (PSMA) LIGANDS” (Deutsches Krebsforschungszentrum Stiftung des öffentlichen …, priority 2022, published 2025).

Test system: prostate cancer

O=C(O)CC[C@H](NC(=O)N[C@@H](CCCCNC(=O)[C@H](Cc1ccc2ccccc2c1)NC(=O)[C@H]1CC[C@H](CNC(=O)CN2CCN(CC(=O)O)CCN(CC(=O)O)CCN(CC(=O)O)CC2)CC1)C(=O)O)C(=O)O [225Ac-PSMA-617, metal not drawn]
PSA value (both patients): fell below the detectability limit | response of patients (two patients with extremely advanced and end-stage disease): complete remission
